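Cultured in 96-well plates, cells were exposed to test compound for 48 hours across five concentrations. At the GI50, growth is halved. TGI: concentration producing complete growth inhibition.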
Columns and labels:
Assay in all cases: NCI tumour cell line growth inhibition, 48 h
NCI/ADR-RES ovarian = system: NCI/ADR-RES ovarian
KM12 colon = system: KM12 colon
OVCAR-8 ovarian = system: OVCAR-8 ovarian
HT29 colon = system: HT29 colon
SN12C renal = system: SN12C renal
TK-10 renal = system: TK-10 renal
A498 renal = system: A498 renal
SW-620 colon = system: SW-620 colon
MOLT-4 leukemia = system: MOLT-4 leukemia
NCI-H226 lung = system: NCI-H226 lung

SMILES | TGI (NCI/ADR-RES ovarian) [µM] | TGI (KM12 colon) [µM] | TGI (OVCAR-8 ovarian) [µM] | TGI (HT29 colon) [µM] | TGI (SN12C renal) [µM] | TGI (TK-10 renal) [µM] | TGI (A498 renal) [µM] | TGI (SW-620 colon) [µM] | TGI (MOLT-4 leukemia) [µM] | TGI (NCI-H226 lung) [µM] | GI50 (OVCAR-8 ovarian) [µM] | GI50 (HT29 colon) [µM] | GI50 (SN12C renal) [µM] | GI50 (MOLT-4 leukemia) [µM] | GI50 (NCI/ADR-RES ovarian) [µM] | GI50 (KM12 colon) [µM] | GI50 (TK-10 renal) [µM] | GI50 (A498 renal) [µM] | GI50 (SW-620 colon) [µM] | GI50 (NCI-H226 lung) [µM]
COc1cccc2c1CCc1sc(CN3CCN(C)CC3)nc1-2 | > 100 | > 100 | > 100 | 54.1 | > 100 | > 100 | > 100 | > 100 | 63.9 | > 100 |  |  |  |  |  |  |  |  |  | 
COc1cc(/C=[N+](\[O-])c2ccccc2Cl)ccc1OC(=S)S | 76.4 | 41.8 | > 100 | > 100 | > 100 | > 100 | > 100 | > 100 | > 100 | > 100 |  |  |  |  |  |  |  |  |  | 
CC(=O)[C@H]1CC[C@@H]2[C@]1(C)CC=C1[C@]23C=C[C@]2(C[C@@H](O)CC[C@]12C)C(C(=O)O)C3C(=O)O (stereo not given in full) | > 100 | > 100 | > 100 | > 100 | > 100 | > 100 | > 100 | > 100 | > 100 | > 100 |  |  |  |  |  |  |  |  |  | 
O=C(NNC(=O)c1ccccc1O)c1cccs1 | > 100 | > 100 | > 100 | > 100 | > 100 | > 100 | > 100 | > 100 | > 100 | > 100 |  |  |  |  |  |  |  |  |  | 
O=S1(=O)OCCOS(=O)(=O)C1C1c2ccccc2-c2ccccc21 | 85.1 | > 100 | > 100 | > 100 | > 100 | > 100 | > 100 | > 100 | 48.2 | > 100 |  |  |  |  |  |  |  |  |  | 
COc1ccc(CNCCN2C(=O)c3ccc4c5c(ccc(c35)C2=O)C(=O)N(CCNCc2ccc(OC)c(OC)c2OC)C4=O)c(OC)c1OC |  |  | 0.648 | 0.589 | 0.207 |  |  |  | 0.613 |  | 0.16 | 0.164 | 0.0942 | 0.151 |  |  |  |  |  | 
COc1ccccc1-c1nc[nH]c1-c1ccccc1OC | 61.8 | 28.3 |  |  | > 100 | > 100 | > 100 | > 100 | > 100 |  |  |  |  |  |  |  |  |  |  | 
O=C(/C=C/c1cc2ccccc2[nH]c1=O)c1ccc(O)cc1 | > 100 | 4.5 | 21.1 | 12.1 | 16 | 11.8 | 21.3 | 4.45 | 9.91 | 10.9 | 3.23 | 3.61 | 3.48 | 3.04 | 2.9 | 1.89 | 3.81 | 8.44 | 1.89 | 3.29
CC(NC(=O)C(NC(=O)C(NC(=O)C(F)(F)F)C(C)C)C(C)C)C(=O)Oc1c(Cl)c(Cl)c(Cl)c(Cl)c1Cl (stereo not given) | > 100 | > 100 | > 100 | > 100 | > 100 | > 100 | > 100 | > 100 | > 100 | > 100 |  |  |  |  |  |  |  |  |  | 
Cc1[nH]c(-c2ccccc2)c(O)c1C(=O)OC1CC(C)CCC1C(C)C (stereo not given) | 28.2 | 27.9 | 29.9 | 27.5 | 29.1 |  | 32.7 | 29.2 | 28.1 | 30.9 |  |  |  |  |  |  |  |  |  | 
CCOC(=O)C1=C(C)NC(c2ccccc2)=C(C(=O)OCc2ccccc2)C1C#Cc1ccccc1 (stereo not given) | > 100 | > 100 | > 100 |  | > 100 | > 100 | > 100 | > 100 | > 100 | > 100 |  |  |  |  |  |  |  |  |  | 
COc1cc2ccnc3c2c(c1OC)N(C)C=C3 | 76.4 | > 100 | > 100 |  | > 100 | > 100 | > 100 | > 100 | > 100 | 54.1 |  |  |  |  |  |  |  |  |  | 
CCN1CCC(O)(/C=C/c2ccc(Cl)c(Cl)c2)C(C(=O)/C=C/c2ccc(Cl)c(Cl)c2)C1 (stereo not given) | 2.27 | 1.88 | 1.87 | 1.82 | 2.06 | 2.81 | 2.91 | 1.4 |  | 3.81 |  |  |  |  |  |  |  |  |  | 
CCOC(=O)/C(C(N)=O)=C(/O)c1cnccn1 | > 100 | > 100 | > 100 | > 100 | > 100 |  | > 100 | > 100 | > 100 | > 100 |  |  |  |  |  |  |  |  |  | 
Nc1nc(Cl)cc(OCC2(CO)CCCCC2)n1 | > 100 |  | > 100 | > 100 | > 100 | > 100 | > 100 | > 100 | > 100 | > 100 |  |  |  |  |  |  |  |  |  | 
CCN1CC2(CO)CCC(OC)C34C5CC6C(OC)CC(O)(C5C6OC)C(O)(C(OC)C23)C14 (stereo not given) | > 375 | > 375 | > 375 | > 375 | > 375 |  | > 375 | > 375 | > 375 | > 375 |  |  |  |  |  |  |  |  |  | 
C=C1C(=O)OC2C=C(C)CC3C=C(CCC=C(C)CCC12)C(=O)O3 (stereo not given) | 114 | 109 | 174 | 131 | 157 |  | 167 | 107 | 159 | 174 |  |  |  |  |  |  |  |  |  | 
O=c1oc2c(Cl)cc(Cl)cc2cc1-c1cn2c(n1)sc1ccccc12 | > 100 | > 100 | > 100 | > 100 | > 100 | > 100 |  | 92.4 | 52 |  |  |  |  |  |  |  |  |  |  | 
CSCCC(NOC(=O)Cc1ccccc1)P(=O)(O)c1ccccc1 (stereo not given) | > 100 |  | > 100 | > 100 | > 100 | > 100 |  | > 100 | > 100 | > 100 |  |  |  |  |  |  |  |  |  | 
CCN(CC)CCNC(=O)C1COc2ccc(-c3cc(=O)c4ccccc4o3)cc2O1 (stereo not given) | 45.8 | 35.4 | 33.4 | 34.6 | 55.1 |  | 30.3 | 45.9 | 57.9 | 31.3 |  |  |  |  |  |  |  |  |  | 
Cc1cc2nc3c(C)c4ccccc4c(C)n3c2cc1C | 8.41 | > 10 | > 10 | > 10 | > 10 | > 10 |  | > 10 | > 10 |  |  |  |  |  |  |  |  |  |  | 

Reference: PubChem BioAssay (NCI)
